Assay results reported in patent publication US8658646B2, “Pyrrolopyrazine kinase inhibitors” (Hoffmann-LaRoche Inc., priority 2011, dated 2014).

Target: T1, JAK3: Recombinant human kinase domain (Homo sapiens, UniProt P52333)
T1 construct: JAK3: Recombinant human kinase domain from Millipore (Cat #14-629) or prepared; purchased Millipore 14-629
Experiment: Determination of IC50 of Janus Kinase (JAK) inhibition, radioactive end-point 33P-ATP assay, JAK3
Type: biochemical
Conditions: ATP 1.5 uM, peptide 50 uM, 20 minutes, read-out: JAK3-INHIB-DR/v1~NO ADDITIVE~Enzyme_Conc = 100
Procedure: Determination of IC50 of Janus Kinase (JAK) Inhibition:
Assay conditions used are described below: • Assay Buffer: JAK Kinase Buffer: 50 mM Hepes [pH 7.2], 10 mM MgCl2, 1 mM DTT, 1 mg/ml BSA. The assay was carried out in this buffer. • Assay Format The kinase activity of all three JAK kinases was measured using a radioactive, end-point assay and with trace amounts of ^33P-ATP. The assays were carried out in 96-well polypropylene plates. Experimental Method:
All concentrations were final in the reaction mixture and all incubations were carried at room temperature. […] Final concentration of DMSO in the reaction was 10%. • 2) Compounds were preincubated with enzyme (0.5 nM JAK3 (commercially available), 0.2 nM JAK3 (prepared), 1 nM JAK2, 5 nM JAK1) for 10 minutes. • 3) Reactions were initiated by the addition of a cocktail of the two substrates (ATP and peptide premixed in the JAK Kinase Buffer). […] JAK1 assay was carried out at an ATP concentration of 10 uM and a peptide concentration of 50 uM. • 4) The duration of the assay for JAK2 and JAK3 is 20 minutes. JAK1 assay was carried out for 40 minutes. With all three enzymes, reactions were terminated by the addition of 0.5M EDTA to a final concentration of 100 mM. • 5) 25 ul of terminated reactions were transferred to 150 ul of a 7.5% (v/v) slurry of streptavidin-coated sepharose beads in MgCl2- and CaCl2-free 1× Phosphate Buffered Saline containing 50 mM of EDTA in 96-well, 1.2 um MultiScreen-BV filter plates. • 6) After a 30-minute incubation, the beads were washed under vacuum with the following buffers: • a. 3 to 4 washes with 200 ul of 2M NaCl. • b. 3 to 4 washes with 200 ul of 2M NaCl plus 1% (v/v) phosphoric acid. • c. 1 wash with water. • 7) Washed plates were dried in a 60° C. oven for between 1 to 2 hours. • 8) 70 ul of Microscint 20 scintillation fluid was added to each well of filter plates and after at least 30 minutes of incubation, radioactive counts were measured in a Perkinelmer microplate scintillation counter.

T1 sequence (P52333 822-1111 limits assumed): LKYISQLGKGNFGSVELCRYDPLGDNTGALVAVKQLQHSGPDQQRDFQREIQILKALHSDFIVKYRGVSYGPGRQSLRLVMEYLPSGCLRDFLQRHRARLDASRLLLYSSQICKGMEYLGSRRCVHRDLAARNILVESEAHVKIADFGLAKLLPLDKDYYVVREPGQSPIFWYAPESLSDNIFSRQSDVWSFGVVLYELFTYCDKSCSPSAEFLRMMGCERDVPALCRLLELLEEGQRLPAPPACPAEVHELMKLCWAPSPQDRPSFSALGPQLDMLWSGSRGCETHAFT

Structure (SMILES)	IC50
COC[C@H](C)NC(=O)c1c[nH]c2ncc(-c3ncn4cc(F)ccc34)nc12 [Example I-41, 2-(6-Fluoro-imidazo[1,5-a]pyridin-1-yl)-5H-pyrrolo[2,3-b]pyrazine-7-carboxylic acid ((S)-2-methoxy-1-methyl-ethyl)-amide]	0.375 nM
CC[C@H](COC)NC(=O)c1c[nH]c2ncc(-c3nn(C)c4cc(Cl)ccc34)nc12 [Example I-162, 2-(6-Chloro-1-methyl-1H-indazol-3-yl)-5H-pyrrolo[2,3-b]pyrazine-7-carboxylic acid ((R)-1-methoxymethyl-propyl)-amide]	11.3 nM
COC[C@H](C)NC(=O)c1c[nH]c2ncc(-c3nn(Cc4ccccn4)c4cc(F)ccc34)nc12 [Example I-240, 2-(6-Fluoro-1-pyridin-2-ylmethyl-1H-indazol-3-yl)-5H-pyrrolo[2,3-b]pyrazine-7-carboxylic acid ((S)-2-methoxy-1-methyl-ethyl)-amide]	0.615 nM
Cn1nc(-c2cnc3[nH]cc(C(=O)N[C@@H](C(=O)N4CCC(C#N)CC4)C4CC4)c3n2)c2ccc(C3CC3)cc21 [Example I-9, 2-(6-Cyclopropyl-1-methyl-1H-indazol-3-yl)-5H-pyrrolo[2,3-b]pyrazine-7-carboxylic acid [(R)-2-(4-cyano-piperidin-1-yl)-1-cyclopropyl-2-oxo-ethyl]-amide]	4.01 nM
C[C@@H](NC(=O)c1c[nH]c2ncc(-c3nn(C)c4cc(F)cc(F)c34)nc12)C(=O)N1CC(C#N)C1 [Example I-88, 2-(4,6-Difluoro-1-methyl-1H-indazol-3-yl)-5H-pyrrolo[2,3-b]pyrazine-7-carboxylic acid [(R)-2-(3-cyano-azetidin-1-yl)-1-methyl-2-oxo-ethyl]-amide]	1.57 nM
C[C@@H](NC(=O)c1c[nH]c2ncc(-c3nn(C)c4c3CCC(C)(C)C4)nc12)C(=O)N1CC(C#N)C1 [Example I-70, 2-(1,6,6-Trimethyl-4,5,6,7-tetrahydro-1H-indazol-3-yl)-5H-pyrrolo[2,3-b]pyrazine-7-carboxylic acid [(R)-2-(3-cyano-azetidin-1-yl)-1-methyl-2-oxo-ethyl]-amide]	29.8 nM
C[C@@H](CO)NC(=O)c1c[nH]c2ncc(-c3nn(C)c4cc(Cl)ccc34)nc12 [Example I-164, 2-(6-Chloro-1-methyl-1H-indazol-3-yl)-5H-pyrrolo[2,3-b]pyrazine-7-carboxylic acid ((S)-2-hydroxy-1-methyl-ethyl)-amide]	17 nM
Cn1nc(-c2cnc3[nH]cc(C(=O)NC(C)(C)CO)c3n2)c2ccc(F)cc21 [Example I-363, 2-(6-Fluoro-1-methyl-1H-indazol-3-yl)-5H-pyrrolo[2,3-b]pyrazine-7-carboxylic acid (2-hydroxy-1,1-dimethyl-ethyl)-amide]	> 1000 nM
C[C@H](CN1CC(C#N)C1)NC(=O)c1c[nH]c2ncc(-c3nn(C)c4cc(Cl)ccc34)nc12 [Example I-126, 2-(6-Chloro-1-methyl-1H-indazol-3-yl)-5H-pyrrolo[2,3-b]pyrazine-7-carboxylic acid [(R)-2-(3-cyano-azetidin-1-yl)-1-methyl-ethyl]-amide]	18.3 nM
Cn1nc(-c2cnc3[nH]cc(C(=O)N[C@@H](C(=O)N4CCC(C#N)CC4)C4CC4)c3n2)c2cc(Cl)c(Cl)cc21 [Example I-67, 2-(5,6-Dichloro-1-methyl-1H-indazol-3-yl)-5H-pyrrolo[2,3-b]pyrazine-7-carboxylic acid [(R)-2-(4-cyano-piperidin-1-yl)-1-cyclopropyl-2-oxo-ethyl]-amide]	0.48 nM
COC[C@H](C)NC(=O)c1c[nH]c2ncc(-c3nn(C)c4cc(Cl)cc(F)c34)nc12 [Example I-170, 2-(6-Chloro-4-fluoro-1-methyl-1H-indazol-3-yl)-5H-pyrrolo[2,3-b]pyrazine-7-carboxylic acid ((S)-2-methoxy-1-methyl-ethyl)-amide]	7.12 nM
